From article PMC6149819, “Domain IV of Annexin A5 Is Critical for Binding Calcium and Guarantees Its Maximum Binding to the Phosphatidylserine Membrane” (Molecules : A Journal of Synthetic Chemistry and Natural …, 2017) come the findings set out here.

Experiment [1] has as its target T1, ctA5 (C-terminal truncated anxA5, lacking domain IV) (Homo sapiens, UniProt P08758, DEL255-320).
T1 construct: domain IV (last 66 residues) deleted; reverse primer ends at AYLAET; non-fusion protein released by SspDnaB intein self-cleavage, His6-CBD-intein removed; E. coli BL21(DE3); initiator Met absent
T1 sequence (P08758 2-254): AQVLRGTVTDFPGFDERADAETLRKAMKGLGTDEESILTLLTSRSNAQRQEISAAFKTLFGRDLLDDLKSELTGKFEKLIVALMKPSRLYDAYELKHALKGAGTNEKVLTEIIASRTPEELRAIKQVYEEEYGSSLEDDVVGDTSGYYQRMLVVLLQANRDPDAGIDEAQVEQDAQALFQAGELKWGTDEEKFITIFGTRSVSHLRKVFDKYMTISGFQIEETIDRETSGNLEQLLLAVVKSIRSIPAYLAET
Put plainly: isothermal titration calorimetry, one-site model. The format is binding. From the text: isothermal titration calorimetry, one-site model on ctA5 (C-terminal truncated anxA5, lacking domain IV)
On the technique in general: Isothermal titration calorimetry measures the heat released or taken up as one component is titrated into another.

The target in experiment [2] is T2, wtA5 (wild-type anxA5) (Homo sapiens, UniProt P08758).
T2 construct: non-fusion protein released by SspDnaB intein self-cleavage, His6-CBD-intein removed; E. coli BL21(DE3); forward primer encodes AQVLRG directly after the intein (initiator Met absent)
T2 sequence (P08758 2-320): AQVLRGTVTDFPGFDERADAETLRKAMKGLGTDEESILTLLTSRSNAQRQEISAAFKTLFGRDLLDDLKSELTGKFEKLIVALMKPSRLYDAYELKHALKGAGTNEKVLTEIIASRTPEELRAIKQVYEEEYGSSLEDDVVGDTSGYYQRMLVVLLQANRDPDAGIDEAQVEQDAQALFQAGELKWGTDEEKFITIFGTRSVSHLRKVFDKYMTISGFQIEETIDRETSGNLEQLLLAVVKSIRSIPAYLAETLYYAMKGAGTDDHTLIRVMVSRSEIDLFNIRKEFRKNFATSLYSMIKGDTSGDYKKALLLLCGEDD
Put plainly: isothermal titration calorimetry, one-site model. The class given is binding. From the text:
isothermal titration calorimetry, one-site model on wtA5 (wild-type anxA5)

As to `CCCCCCCC/C=C\CCCCCCCC(=O)O[C@H](COC(=O)CCCCCCCCCCCCCCC)COP(=O)(O)OC[C@H](N)C(=O)O` [POPS], the Kd in experiment [1] turned out to be 158 ± 15.4 µM; in experiment [2], 55.9 ± 6.8 µM.

What is called Kd is the free concentration of one partner at which half of the binding sites on the other are occupied at equilibrium, for simple one-to-one binding.
